Where no end group is shown, it is not given here.
Experiments:
[1] = system: irrelevant peptide-BSA; experiment: Titer to irrelevant peptide in sera of immunised animals (peptide ELISA); format: in vivo, mouse; conditions: FIG. 11; Balb/c mice, 30 μg peptide, Alum as adjuvant; S3; detection αIgG
Method: (§1) Balb/c mice/30 μg Peptide, 2 injections in 2 week intervals. S3=2 weeks after 3rd injection. Alum as adjuvant. Titers against original epitope (p4073) induced by injection of mimotopes. Well coating: 50 μl of 1 μM p4073-BSA or 1 μg/ml activated KLH. Detection: αIgG:
(§2) Subcutaneous injections in the flank were performed in week 1, week 3 and week 7 with 30 μg peptide-KLH per mouse. Intradermal injections in the ear were performed in week 1, week 3 and week 6 with 10 μg peptide-KLH per mouse. Sera were taken 2 weeks after the 3rd injection. Vaccine formulation with Alum (always 1 mg per mouse): up to 250 μl, injected into one flank. The Alum formulation with 1 ml per mouse (500 μl into each flank) was in 1×PBS as buffer.
Vaccine formulation with Gerbu Adjuvant 100 (Gerbu Cat. Nr. #3100; always 50 μl adjuvant per mouse): 200 μl, 100 μl injected into each flank comprising 1×HEPES as buffer.
Female Balb/c mice, five mice per group, were subcutaneously immunized with 30 μg peptide coupled to KLH. Control groups were administered KLH or C-[…] (SEQ ID NO. 147). As adjuvant alum was used. […] The in vitro ELISA assay to determine the antibody titer was performed with pooled sera after two vaccinations in a two week interval (S2; see FIGS. 7a to 7d). The wells of the ELISA plate were coated with KLH (positive control), mimotope-BSA conjugate, C-[…] (SEQ ID NO. 147) and a irrelevant peptide-BSA conjugate (negative control). The detection was performed with anti-mouse IgG.

[2] = system: CETP; experiment: CETP activity assay: human serum mixed with serum from vaccinated wild-type mice; format: biochemical; conditions: for CETP activity after addition of serum from vaccinated mice: FIG. 14, 0.6 μl human serum
[3] = system: original epitope (p4073); experiment: Titer to the original CETP epitope in sera of immunised animals (peptide ELISA); format: in vivo, mouse; conditions: FIG. 11; Balb/c mice, 30 μg peptide, Alum as adjuvant; S3; coating 1 μM p4073-BSA; detection αIgG
Method: as §1
(§3) Inhibiting as well as some non-inhibiting peptides were coupled to KLH and injected into mice (wildtype or CETP-transgenic mice; subcutaneously into the flank or intra-dermaly into the ears) or rabbits (subcutaneously into the flank) together with an appropriate adjuvant (aluminium hydroxide and Gerbu 100 for mice and aluminium hydroxide or CFA/IFA for rabbits).
(§4) Titers to injected peptides as well as to the original CETP epitope were determined. In addition, for selected sera also immune response to CETP protein was measured (Results see FIGS. 7a to 7d and FIGS. 19a to 19e).
as §2
Vaccine formulation with Gerbu Adjuvant 100 (Gerbu Cat. Nr. #3100; always 50 μl adjuvant per mouse): 200 μl, 100 μl injected into each flank comprising 1×HEPES as buffer. […]

[4] = system: injected peptide-BSA; experiment: Titer to the injected peptide in sera of immunised animals (peptide ELISA); format: in vivo, mouse; conditions: FIG. 11; Balb/c mice, 30 μg peptide, Alum as adjuvant; S3 = 2 weeks after 3rd injection; detection αIgG
Method: Balb/c mice/30 μg Peptide, 2 injections in 2 week intervals. S3=2 weeks after 3rd injection. Alum as adjuvant. […] Detection: αIgG:
as §3, §4
Subcutaneous injections in the flank were performed in week 1, week 3 and week 7 with 30 μg peptide-KLH per mouse. Intradermal injections in the ear were performed in week 1, week 3 and week 6 with 10 μg peptide-KLH per mouse. Sera were taken 2 weeks after the 3rd injection. Vaccine formulation with Alum (always 1 mg per mouse): up to 250 μl, injected into one flank. The Alum formulation with 1 ml per mouse (500 μl into each flank) was in 1×PBS as buffer. […]

[5] = system: rabbit CETP; experiment: Anti-protein ELISA of sera of immunised mice, plates coated with purified rabbit CETP; format: in vivo, mouse; conditions: FIG. 12a; sera of immunised mice; purified rabbit CETP
From the text: (§5) FIGS. 12a and 12b show the in vivo induction of CETP specific antibodies by the administration of the mimotopes of the invention. Titers to p4073 and its correlation to titers to CETP of selected groups (which show high titers against p4073): gr.4, gr.9, gr.10, gr.14, gr.16-20/gr.1 (KLH), gr.2 (original epitope) as controls. Coating: recombinant GST-CETP or purified rabbit CETP, respectively:
(§6) Sera of each group (5 Balb/c mice each) were combined, diluted 1:100 and tested on ELISA plates coated with recombinant GST-CETP or rabbit CETP, respectively. Detection of bound antibodies was with algG.
as §4

[6] = system: recombinant GST-CETP; experiment: Anti-protein ELISA of sera of immunised mice, plates coated with recombinant GST-CETP; format: in vivo; conditions: FIG. 12a; sera of immunised mice
From the text: as §5, §6, §4

p4361-KLH: C-FGFPAHVFIDWLQSLS coupled to KLH (CFGFPAHVFIDWLQSLS; also: coupled to KLH)
titer, irrelevant peptide-BSA [1]: 10
CETP activity after addition of serum from vaccinated mice ([2]; 0.2 μl mouse serum): reduces significantly said activity
CETP activity after addition of serum from vaccinated mice ([2]; 1.2 μl and 0.6 μl mouse serum): completely inhibits CETP activity
inhibition of CETP activity in human serum (in words) ([2]; FIGS. 15 to 17 and remarks in the example set-up table, sera of vaccinated mice): inhibits significantly CETP activity
titer, original epitope-BSA [3]: 9.530
titer, injected peptide-BSA [4]: 17.940
ELISA signal, rabbit CETP [5]: 1.51
ELISA signal, recombinant GST-CETP [6]: 1.64

Reference: patent publication US8618046B2, “Treatment of atherosclerosis with cholesterol ester transport protein mimotopes” (Affiris AG, priority 2007, dated 2013)
